In ChEMBL document CHEMBL6178018, “Design of an Oral STING Agonist through Intramolecular Hydrogen Bond Ring Mimicking to Achieve Complete Tumor Regression” (J Med Chem, 2025):
Activity calls are given as the source filed them. The rule behind the calls is not given here.

Assays:
[1] = molecular target: T1, Stimulator of interferon genes protein (Homo sapiens, UniProt Q86WV6); experiment: Binding affinity to wild type His-tagged STING (unknown origin) measured after 3 hrs incubation by HTRF assay
Target sequence in this assay (Q86WV6 whole entry): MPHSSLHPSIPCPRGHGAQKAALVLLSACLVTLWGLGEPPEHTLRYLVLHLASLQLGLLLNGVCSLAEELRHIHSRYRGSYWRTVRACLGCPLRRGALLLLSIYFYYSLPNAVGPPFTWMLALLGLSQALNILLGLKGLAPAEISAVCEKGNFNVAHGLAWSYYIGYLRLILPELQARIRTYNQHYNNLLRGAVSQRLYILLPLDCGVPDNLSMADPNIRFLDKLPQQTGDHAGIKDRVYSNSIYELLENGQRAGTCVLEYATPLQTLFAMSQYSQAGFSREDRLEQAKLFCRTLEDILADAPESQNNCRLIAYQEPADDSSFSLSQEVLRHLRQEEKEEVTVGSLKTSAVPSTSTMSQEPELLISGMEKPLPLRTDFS

[2] = molecular target: T1, Stimulator of interferon genes protein; experiment: Agonist activity at STING R232 mutant (unknown origin) expressed in human THP1-Dual cells assessed as fold change in stimulation activity measured after 24 hrs incubation by QUANTI-Luc4 based microplate reader; format: cell-based
Target sequence in this assay (Q86WV6 whole entry, looked up, change not shown): as the sequence (Q86WV6 whole entry) above

[3] = molecular target: T1, Stimulator of interferon genes protein; experiment: Agonist activity at human STING HAQ variant in human THP1-Blue ISG cells assessed as fold change in stimulation activity measured after 24 hrs incubation by QUANTI-Blue based microplate reader; format: cell-based
Target sequence in this assay (Q86WV6 whole entry, looked up, change not shown): as the sequence (Q86WV6 whole entry) above

[4] = molecular target: T2, Stimulator of interferon genes protein (Mus musculus, UniProt Q3TBT3); experiment: Agonist activity at mouse STING expressed in human THP1-Dual cells assessed as fold change in stimulation activity measured after 24 hrs incubation by QUANTI-Luc4 based microplate reader; format: cell-based
T2 sequence (Q3TBT3 whole entry): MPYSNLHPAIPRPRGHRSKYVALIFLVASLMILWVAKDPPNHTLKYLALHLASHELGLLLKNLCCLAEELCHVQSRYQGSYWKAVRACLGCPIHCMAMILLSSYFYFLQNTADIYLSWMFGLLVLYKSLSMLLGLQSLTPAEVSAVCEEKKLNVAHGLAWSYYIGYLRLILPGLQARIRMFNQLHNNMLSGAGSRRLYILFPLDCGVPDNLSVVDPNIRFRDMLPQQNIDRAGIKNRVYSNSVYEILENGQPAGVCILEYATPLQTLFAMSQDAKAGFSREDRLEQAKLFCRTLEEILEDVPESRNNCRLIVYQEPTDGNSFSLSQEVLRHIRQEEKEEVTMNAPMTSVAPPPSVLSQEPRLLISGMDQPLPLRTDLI

[5] = AUC in mouse at 10 mg/kg, po by LC-MS/MS analysis; format: ADME, organism-based; conditions: in vivo
MC-38 [6] = experiment: In vivo antitumor activity against mouse MC-38 cells inoculated in C57BL/6 mouse assessed as as increase in moue survival time at 60 mg/kg, po Q3D measured for 15 to 20 days; format: functional, organism-based; conditions: time 15-20 day
[7] = Clearance in mouse at 10 mg/kg, po by LC-MS/MS analysis; format: ADME, organism-based; conditions: in vivo
[8] = Cmax in mouse at 10 mg/kg, po by LC-MS/MS analysis; format: ADME, organism-based; conditions: in vivo
[9] = AUC in mouse at 5 mg/kg, iv by LC-MS/MS analysis; format: ADME, organism-based; conditions: in vivo
[10] = Oral bioavailability in mouse at 10 mg/kg by LC-MS/MS analysis; format: ADME, organism-based; conditions: in vivo
[11] = Half life in mouse at 10 mg/kg, po by LC-MS/MS analysis; format: ADME, organism-based; conditions: in vivo
[12] = Cmax in mouse at 5 mg/kg, iv by LC-MS/MS analysis; format: ADME, organism-based; conditions: in vivo
[13] = Clearance in mouse at 5 mg/kg, iv by LC-MS/MS analysis; format: ADME, organism-based; conditions: in vivo
[14] = Half life in mouse at 5 mg/kg, iv by LC-MS/MS analysis; format: ADME, organism-based; conditions: in vivo
MC-38 [15] = experiment: In vivo antitumor activity against mouse MC-38 cells inoculated in C57BL/6 mouse assessed as complete tumor regression (CR) at 60 mg/kg, po Q3D measured for 15 to 20 days; format: functional, organism-based; conditions: time 15-20 day
THP1-Blue ISG = experiment: Induction of STING phosphorylation in human THP1-Blue ISG cells at 13 to 50 uM measured after 3 hrs by Western blot analysis; format: cell-based; conditions: filed as agonist, dose 13-50 µM
[16] = molecular target: T3, Interferon regulatory factor 3 (Homo sapiens) (UniProt Q14653); experiment: Induction of IRF3 phosphorylation in human THP1-Blue ISG cells at 13 to 50 uM measured after 3 hrs by Western blot analysis; format: cell-based; conditions: filed as agonist, dose 13-50 µM
T3 sequence (whole entry): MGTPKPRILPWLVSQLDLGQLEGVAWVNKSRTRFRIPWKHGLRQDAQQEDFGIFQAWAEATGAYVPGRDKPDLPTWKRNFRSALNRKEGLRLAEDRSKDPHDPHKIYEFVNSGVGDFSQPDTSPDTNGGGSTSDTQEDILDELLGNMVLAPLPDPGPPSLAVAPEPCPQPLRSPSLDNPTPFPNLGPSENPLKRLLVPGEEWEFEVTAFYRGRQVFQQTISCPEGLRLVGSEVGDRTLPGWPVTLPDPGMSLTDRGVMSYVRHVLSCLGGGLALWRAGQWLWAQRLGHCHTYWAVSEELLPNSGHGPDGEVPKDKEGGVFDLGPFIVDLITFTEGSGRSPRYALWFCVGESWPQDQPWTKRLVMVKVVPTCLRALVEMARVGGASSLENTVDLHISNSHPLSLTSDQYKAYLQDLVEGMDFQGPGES

THP-1 [17] = experiment: Induction of interferon secretion in human THP-1 cells assessed as IFN-beta level at 13 uM measured after 24 hrs by ELISA; format: functional, cell-based
THP-1 [18] = experiment: Induction of interferon response in STING knock out human THP-1 cells assessed as fold change in stimulation activity at 13 to 25 uM measured after 24 hrs incubation by QUANTI-Luc4 based microplate reader; format: functional, cell-based; conditions: dose 13-25 µM
[19] = Metabolic stability in mouse liver microsomes assessed as half life at 10 uM measured up to 60 mins by LC-MS/MS analysis; format: ADME, Microsome
[20] = Chemical stability of the compound in MeOH/H2O assessed as half life by LC-MS/MS analysis; format: physicochemical
[21] = Stability of the compound in human plasma assessed as half life by LC-MS/MS analysis; format: ADME, cell-free
[22] = Metabolic stability in human liver microsomes assessed as half life at 10 uM measured up to 60 mins by LC-MS/MS analysis; format: ADME, Microsome
[23] = Stability of the compound in mouse plasma assessed as half life by LC-MS/MS analysis; format: ADME, cell-free
[24] = Chemical stability of the compound in MeOH/H2O solvent assessed as half life by LC-MS/MS analysis; format: physicochemical
MC-38 [25] = experiment: In vivo antitumor activity against mouse MC-38 cells inoculated in C57BL/6 mouse assessed as complete tumor regression (CR) at 60 mg/kg, po Q3D co-administered with anti-PD1 measured for 15 to 20 days; format: functional; conditions: time 15-20 day
[26] = molecular target: T1, Stimulator of interferon genes protein; experiment: Agonist activity at human STING in human THP1-Blue ISG cells measured after 24 hrs incubation by QUANTI-Blue based microplate reader; format: cell-based
Target sequence in this assay (Q86WV6 whole entry): as the sequence (Q86WV6 whole entry) above

SMILES | IC50 [1] | EC50 [2] | EC50 [3] | EC50 [4] | further results
COc1cc2sc(C(=O)NCC3(C(=O)O)CCC3)c(F)c2cc1OC | 31.2 µM | 18.4 µM | 3.7 µM | 22 µM | 
COc1cc2cc(C(=O)CCC(=O)O)sc2cc1OC | 22.5 µM | 8.8 µM | 4.4 µM | 8.1 µM | AUC [5]: 7570 ng·h/mL; Activity (MC-38 [6]): inactive; CL/F [7]: 22 mL/min/kg; Cmax [8]: 13400 ng/mL; AUC [9]: 7260 ng·h/mL; bioavailability [10]: 52%; half-life [11]: 1.5 h; Cmax [12]: 25100 ng/mL; clearance [13]: 11.5 mL/min/kg; half-life [14]: 0.3 h; Activity (MC-38 [15]): inactive
COc1cc2sc(C(=O)NC[C@@H](C)C(=O)O)c(F)c2cc1OC | 28.7 µM | 36.5 µM | 4.7 µM | 27.9 µM | 
COc1cc2sc(C(=O)NCCC(=O)O)c(F)c2cc1OC(C)C |  |  | > 100 µM |  | 
CC[C@H](CNC(=O)c1sc2cc(OC)c(OC)cc2c1F)C(=O)O | 24.1 µM | 12 µM | 5.1 µM | 11.9 µM | Activity (THP1-Blue ISG): Active; Activity [16]: Active; Activity (THP-1 [17]): Active; Activity (THP-1 [18]): inactive
COc1cc2sc(C(=O)NC(C)(C)CC(=O)O)c(F)c2cc1OC |  |  | > 100 µM |  | 
CCOc1cc2c(F)c(C(=O)NCCC(=O)O)sc2cc1OC |  |  | > 100 µM |  | 
CONC(=O)C(C)CNC(=O)c1sc2cc(OC)c(Br)cc2c1F (configuration not stated) |  |  | > 100 µM |  | 
COc1cc2sc3c(c2cc1OC)C(=O)N(CCC(=O)O)C3=O | 22.1 µM | 19.6 µM | 4.5 µM | 25.3 µM | Activity (MC-38 [6]): inactive; half-life at 10 µM [19]: > 1 h; half-life [20]: 21 h; half-life [21]: 0.5 h; half-life at 10 µM [22]: > 1 h; half-life [23]: > 1 h; half-life [24]: 0.35 h; Activity (MC-38 [25]): 60%; Activity (MC-38 [15]): inactive
CCC(CNC(=O)c1sc2cc(OC)c(OC)c(F)c2c1F)C(=O)O (configuration not stated) |  |  | > 100 µM |  | 
COc1cc2sc(C(=O)NCC(F)(F)C(=O)O)c(F)c2cc1OC |  |  | > 100 µM |  | 
COc1cc2sc(C(=O)N[C@H](C)CC(=O)O)c(F)c2cc1OC |  |  | > 100 µM |  | 
CONC(=O)CCNC(=O)c1sc2cc(OC)c(OC)cc2c1F |  |  | 33 µM |  | 
COc1cc2sc(C(=O)NCCC(N)=O)c(F)c2cc1OC |  |  | > 100 µM |  | 
CCC(CNC(=O)c1sc2c(F)c(OC)c(OC)cc2c1F)C(=O)O (configuration not stated) | 75.2 µM | 85.9 µM | 3.5 µM | 92.7 µM | 
COc1cc2sc(C(=O)N[C@@H](C)CC(=O)O)c(F)c2cc1OC |  |  | > 100 µM |  | 
COc1cc2sc(C(=O)NC[C@H](C)C(=O)O)c(F)c2cc1OC | 33.3 µM | 58.5 µM | 6.2 µM | 61.2 µM | 
COc1cc2sc(C(=O)NCCC(=O)O)c(F)c2cc1OC | 49.8 µM |  | 30.3 µM |  | half-life [20]: > 48 h; EC50 [26]: 30.3 µM
CCC(CNC(=O)c1sc2cc(OC)c(OC)cc2c1F)C(=O)O (racemic) | 24.6 µM | 17.2 µM | 4.8 µM | 15.7 µM | 
COc1cc2sc(C(=O)NCCC(=O)O)c(Cl)c2cc1OC |  |  | 26.5 µM |  | 
COc1cc2sc(C(=O)N[C@@H](CC(=O)O)C(N)=O)c(F)c2cc1OC |  |  | > 100 µM |  | 
COc1cc2cc(C(=O)NCCC(=O)O)sc2cc1OC | > 100 µM |  |  |  | EC50 [26]: > 100 µM
CCC(CNC(=O)c1[se]c2cc(OC)c(OC)cc2c1F)C(=O)O (configuration not stated) |  | 13.3 µM | 3.8 µM | 12.5 µM | 
